# Results taken from patent publication US20230391768A2, “IMIDAZOPYRIDINE DERIVATIVES AND AZA-IMIDAZOPYRIDINE DERIVATIVES AS JANUS KINASE 2 INHIBITORS AND USES THEREOF” (Dana-Farber Cancer Institute, Inc., priority 2018, published 2023).
# Columns and labels:
# Assay in all cases: KINOMEscan
# Assay type in all cases: binding
# Conditions in all cases: read-out: percent of control
# [1] = biological target: ABL1(E255K)-phosphorylated (Homo sapiens (Human), UniProt P00519, E255K)
# Method: (§1) In vitro profiling of Compound I-2 (1 μM) was performed using the DiscoveRx KINOMEscan® platform.
# ACVR2B = ACVR2B (Homo sapiens (Human), UniProt Q13705)
# Method: as §1
# ARK5 = ARK5 (Homo sapiens (Human), UniProt O60285)
# Method: as §1
# AXL = AXL (Homo sapiens (Human), UniProt P30530)
# Method: as §1
# CAMK1G = CAMK1G (Homo sapiens (Human), UniProt Q96NX5)
# Method: as §1
# CAMK2A = CAMK2A (Homo sapiens (Human), UniProt Q9UQM7)
# Method: as §1
# CAMKK2 = CAMKK2 (Homo sapiens (Human), UniProt Q96RR4)
# Method: as §1
# CDC2L2 = CDC2L2 (Homo sapiens (Human), UniProt Q9UQ88)
# Method: as §1
# CDKL2 = CDKL2 (Homo sapiens (Human), UniProt Q92772)
# Method: as §1
# CSF1R-autoinhibited = CSF1R-autoinhibited (Homo sapiens (Human), UniProt P07333)
# Method: as §1
# EGFR(L858R) = EGFR(L858R) (Homo sapiens (Human), UniProt P00533, L858R)
# Method: as §1
# FER = FER (Homo sapiens (Human), UniProt P16591)
# Method: as §1
# FLT3 (D835V) = FLT3 (D835V) (Homo sapiens (Human), UniProt P36888, D835V)
# Method: as §1
# FLT3 (N841I) = FLT3 (N841I) (Homo sapiens (Human), UniProt P36888, N841I)
# Method: as §1
# FYN = FYN (Homo sapiens (Human), UniProt P06241)
# Method: as §1
# HIPK4 = HIPK4 (Homo sapiens (Human), UniProt Q8NE63)
# Method: as §1
# ICK = ICK (Homo sapiens (Human), UniProt Q9UPZ9)
# Method: as §1
# INSR = INSR (Homo sapiens (Human), UniProt P06213)
# Method: as §1
# MAPKAPK2 = MAPKAPK2 (Homo sapiens (Human), UniProt P49137)
# Method: as §1
# MST1 = MST1 (Homo sapiens (Human), UniProt Q13043)
# Method: as §1
# NEK1 = NEK1 (Homo sapiens (Human), UniProt Q96PY6)
# Method: as §1
# PAK6 = PAK6 (Homo sapiens (Human), UniProt Q9NQU5)
# Method: as §1
# PDPK1 = PDPK1 (Homo sapiens (Human), UniProt O15530)
# Method: as §1
# PIK4CB = PIK4CB (Homo sapiens (Human), UniProt Q9UBF8)
# Method: as §1
# PIP5K1A = PIP5K1A (Homo sapiens (Human), UniProt Q99755)
# Method: as §1
# PKN2 = PKN2 (Homo sapiens (Human), UniProt Q16513)
# Method: as §1
# RET (V804L) = RET (V804L) (Homo sapiens (Human), UniProt P07949, V804L)
# Method: as §1
# [2] = biological target: RPS6KA5 (Kin.Dom.1-N-terminal) (Homo sapiens (Human), UniProt O75582)
# Method: as §1
# [3] = biological target: RSK3 (Kin.Dom.2-C-terminal) (Homo sapiens (Human), UniProt Q15349)
# Method: as §1
# SIK = SIK (Homo sapiens (Human), UniProt P57059)
# Method: as §1
# SRC = SRC (Homo sapiens (Human), UniProt P12931)
# Method: as §1
# STK36 = STK36 (Homo sapiens (Human), UniProt Q9NRP7)
# Method: as §1
# TNNI3K = TNNI3K (Homo sapiens (Human), UniProt Q59H18)
# Method: as §1
# [4] = biological target: TYK2(JH1domain-catalytic) (Homo sapiens (Human), UniProt P29597)
# Method: as §1
# TYK2(JH2domainpseudokia) = biological target: TYK2(JH2domainpseudokia (Homo sapiens (Human), UniProt P29597))
# Method: as §1
# YSK1 = YSK1 (Homo sapiens (Human), UniProt O00506)
# Method: as §1
# p38-alpha = p38-alpha (Homo sapiens (Human), UniProt Q16539)
# Method: as §1
# p38-delta = p38-delta (Homo sapiens (Human), UniProt O15264)
# Method: as §1
# FYN, sequence (P06241 whole entry): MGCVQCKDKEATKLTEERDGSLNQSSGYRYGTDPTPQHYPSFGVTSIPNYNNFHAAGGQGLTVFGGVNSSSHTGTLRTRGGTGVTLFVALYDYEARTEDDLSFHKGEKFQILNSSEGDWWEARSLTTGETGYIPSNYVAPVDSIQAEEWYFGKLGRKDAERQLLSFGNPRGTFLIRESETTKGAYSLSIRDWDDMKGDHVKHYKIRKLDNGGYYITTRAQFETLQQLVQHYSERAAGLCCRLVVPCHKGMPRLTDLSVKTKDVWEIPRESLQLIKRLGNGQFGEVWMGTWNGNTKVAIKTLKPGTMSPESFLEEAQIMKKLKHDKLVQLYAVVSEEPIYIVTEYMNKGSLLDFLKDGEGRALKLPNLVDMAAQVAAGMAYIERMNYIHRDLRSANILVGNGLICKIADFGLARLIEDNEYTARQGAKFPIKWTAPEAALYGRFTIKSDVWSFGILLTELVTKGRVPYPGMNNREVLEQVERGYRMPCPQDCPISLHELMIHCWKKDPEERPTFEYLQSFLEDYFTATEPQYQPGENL
# ICK, sequence (Q9UPZ9 whole entry): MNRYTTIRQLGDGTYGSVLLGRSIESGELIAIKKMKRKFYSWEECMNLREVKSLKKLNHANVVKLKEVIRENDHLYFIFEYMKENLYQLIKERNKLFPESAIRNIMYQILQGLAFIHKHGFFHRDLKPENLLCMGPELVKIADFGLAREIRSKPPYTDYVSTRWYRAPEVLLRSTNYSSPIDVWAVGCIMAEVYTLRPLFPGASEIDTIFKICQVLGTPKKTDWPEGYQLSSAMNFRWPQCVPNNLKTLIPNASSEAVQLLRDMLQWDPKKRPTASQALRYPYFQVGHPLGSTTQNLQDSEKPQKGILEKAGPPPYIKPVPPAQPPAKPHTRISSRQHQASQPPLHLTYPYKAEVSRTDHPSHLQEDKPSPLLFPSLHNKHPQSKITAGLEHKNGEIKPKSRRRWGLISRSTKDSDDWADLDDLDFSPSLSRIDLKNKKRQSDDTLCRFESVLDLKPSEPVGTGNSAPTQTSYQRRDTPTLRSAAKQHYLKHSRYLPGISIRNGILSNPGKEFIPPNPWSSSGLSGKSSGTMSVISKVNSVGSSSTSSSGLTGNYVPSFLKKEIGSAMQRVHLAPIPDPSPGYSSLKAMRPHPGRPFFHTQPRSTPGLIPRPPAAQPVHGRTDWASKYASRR
# RPS6KA5 (Kin.Dom.1-N-terminal), sequence (O75582 49-318): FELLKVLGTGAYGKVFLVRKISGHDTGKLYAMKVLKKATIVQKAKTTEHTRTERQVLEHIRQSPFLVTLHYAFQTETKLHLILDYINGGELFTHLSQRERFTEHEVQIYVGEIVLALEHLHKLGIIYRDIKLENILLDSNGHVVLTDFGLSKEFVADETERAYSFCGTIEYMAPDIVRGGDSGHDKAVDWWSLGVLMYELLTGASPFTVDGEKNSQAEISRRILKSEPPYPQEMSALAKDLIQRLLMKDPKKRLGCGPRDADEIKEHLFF
# p38-alpha, sequence (Q16539 whole entry): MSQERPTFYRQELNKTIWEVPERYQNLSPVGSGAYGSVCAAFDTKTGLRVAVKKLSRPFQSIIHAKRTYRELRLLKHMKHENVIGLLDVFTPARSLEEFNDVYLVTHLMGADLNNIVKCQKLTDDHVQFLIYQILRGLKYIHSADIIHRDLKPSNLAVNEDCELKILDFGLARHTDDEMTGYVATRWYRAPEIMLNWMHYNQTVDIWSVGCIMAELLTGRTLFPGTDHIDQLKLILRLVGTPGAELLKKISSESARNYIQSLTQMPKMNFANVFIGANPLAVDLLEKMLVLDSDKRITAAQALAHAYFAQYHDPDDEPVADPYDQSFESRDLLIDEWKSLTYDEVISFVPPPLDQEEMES
# CAMKK2, sequence (Q96RR4 whole entry): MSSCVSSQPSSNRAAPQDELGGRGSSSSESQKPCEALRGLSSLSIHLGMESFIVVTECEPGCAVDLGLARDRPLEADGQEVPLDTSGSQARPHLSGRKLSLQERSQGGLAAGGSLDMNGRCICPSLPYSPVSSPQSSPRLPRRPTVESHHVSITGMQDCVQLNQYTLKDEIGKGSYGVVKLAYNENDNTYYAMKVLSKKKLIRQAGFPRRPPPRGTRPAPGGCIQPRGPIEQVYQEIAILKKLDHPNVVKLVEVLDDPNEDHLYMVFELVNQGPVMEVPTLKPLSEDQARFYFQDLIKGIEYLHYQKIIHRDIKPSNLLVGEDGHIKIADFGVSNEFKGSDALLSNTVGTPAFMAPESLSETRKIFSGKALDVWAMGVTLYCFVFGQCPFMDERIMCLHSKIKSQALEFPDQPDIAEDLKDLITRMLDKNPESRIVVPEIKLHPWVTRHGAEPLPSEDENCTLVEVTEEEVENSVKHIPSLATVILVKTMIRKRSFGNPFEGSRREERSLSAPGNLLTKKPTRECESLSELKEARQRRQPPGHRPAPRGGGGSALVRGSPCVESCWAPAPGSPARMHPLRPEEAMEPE
# MST1, sequence (Q13043 whole entry): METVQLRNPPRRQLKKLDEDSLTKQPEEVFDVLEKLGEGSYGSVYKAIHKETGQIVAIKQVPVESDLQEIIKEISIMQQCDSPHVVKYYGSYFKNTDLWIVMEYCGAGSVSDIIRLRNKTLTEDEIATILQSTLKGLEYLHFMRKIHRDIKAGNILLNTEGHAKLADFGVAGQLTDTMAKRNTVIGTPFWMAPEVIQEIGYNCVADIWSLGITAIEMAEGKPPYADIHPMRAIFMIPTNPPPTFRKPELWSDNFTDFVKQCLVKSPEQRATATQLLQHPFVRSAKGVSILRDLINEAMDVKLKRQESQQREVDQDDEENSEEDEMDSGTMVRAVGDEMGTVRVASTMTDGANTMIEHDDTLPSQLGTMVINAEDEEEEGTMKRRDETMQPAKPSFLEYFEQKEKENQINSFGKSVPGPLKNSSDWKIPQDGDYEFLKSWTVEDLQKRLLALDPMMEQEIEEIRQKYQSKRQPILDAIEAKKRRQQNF
# TNNI3K, sequence (Q59H18 whole entry): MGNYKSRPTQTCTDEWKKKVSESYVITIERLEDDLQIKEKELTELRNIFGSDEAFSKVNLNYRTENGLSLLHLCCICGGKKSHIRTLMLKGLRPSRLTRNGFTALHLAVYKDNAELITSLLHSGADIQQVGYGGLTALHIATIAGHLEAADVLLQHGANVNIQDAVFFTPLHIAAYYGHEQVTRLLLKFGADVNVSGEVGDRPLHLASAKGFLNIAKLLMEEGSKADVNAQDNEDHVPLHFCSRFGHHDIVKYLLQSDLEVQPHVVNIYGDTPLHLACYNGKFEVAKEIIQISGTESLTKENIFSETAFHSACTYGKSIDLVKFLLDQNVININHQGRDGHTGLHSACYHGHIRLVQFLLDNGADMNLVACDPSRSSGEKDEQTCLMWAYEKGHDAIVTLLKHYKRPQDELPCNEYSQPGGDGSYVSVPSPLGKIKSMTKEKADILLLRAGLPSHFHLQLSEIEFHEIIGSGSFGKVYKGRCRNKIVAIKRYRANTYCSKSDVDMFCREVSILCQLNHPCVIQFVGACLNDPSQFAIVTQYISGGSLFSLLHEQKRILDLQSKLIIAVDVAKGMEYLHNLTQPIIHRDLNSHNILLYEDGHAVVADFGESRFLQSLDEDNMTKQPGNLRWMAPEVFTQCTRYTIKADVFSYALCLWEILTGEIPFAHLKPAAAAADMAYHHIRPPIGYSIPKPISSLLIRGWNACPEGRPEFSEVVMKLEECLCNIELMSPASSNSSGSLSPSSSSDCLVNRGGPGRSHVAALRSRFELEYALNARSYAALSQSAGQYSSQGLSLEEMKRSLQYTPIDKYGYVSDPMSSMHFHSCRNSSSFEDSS
# STK36, sequence (Q9NRP7 whole entry): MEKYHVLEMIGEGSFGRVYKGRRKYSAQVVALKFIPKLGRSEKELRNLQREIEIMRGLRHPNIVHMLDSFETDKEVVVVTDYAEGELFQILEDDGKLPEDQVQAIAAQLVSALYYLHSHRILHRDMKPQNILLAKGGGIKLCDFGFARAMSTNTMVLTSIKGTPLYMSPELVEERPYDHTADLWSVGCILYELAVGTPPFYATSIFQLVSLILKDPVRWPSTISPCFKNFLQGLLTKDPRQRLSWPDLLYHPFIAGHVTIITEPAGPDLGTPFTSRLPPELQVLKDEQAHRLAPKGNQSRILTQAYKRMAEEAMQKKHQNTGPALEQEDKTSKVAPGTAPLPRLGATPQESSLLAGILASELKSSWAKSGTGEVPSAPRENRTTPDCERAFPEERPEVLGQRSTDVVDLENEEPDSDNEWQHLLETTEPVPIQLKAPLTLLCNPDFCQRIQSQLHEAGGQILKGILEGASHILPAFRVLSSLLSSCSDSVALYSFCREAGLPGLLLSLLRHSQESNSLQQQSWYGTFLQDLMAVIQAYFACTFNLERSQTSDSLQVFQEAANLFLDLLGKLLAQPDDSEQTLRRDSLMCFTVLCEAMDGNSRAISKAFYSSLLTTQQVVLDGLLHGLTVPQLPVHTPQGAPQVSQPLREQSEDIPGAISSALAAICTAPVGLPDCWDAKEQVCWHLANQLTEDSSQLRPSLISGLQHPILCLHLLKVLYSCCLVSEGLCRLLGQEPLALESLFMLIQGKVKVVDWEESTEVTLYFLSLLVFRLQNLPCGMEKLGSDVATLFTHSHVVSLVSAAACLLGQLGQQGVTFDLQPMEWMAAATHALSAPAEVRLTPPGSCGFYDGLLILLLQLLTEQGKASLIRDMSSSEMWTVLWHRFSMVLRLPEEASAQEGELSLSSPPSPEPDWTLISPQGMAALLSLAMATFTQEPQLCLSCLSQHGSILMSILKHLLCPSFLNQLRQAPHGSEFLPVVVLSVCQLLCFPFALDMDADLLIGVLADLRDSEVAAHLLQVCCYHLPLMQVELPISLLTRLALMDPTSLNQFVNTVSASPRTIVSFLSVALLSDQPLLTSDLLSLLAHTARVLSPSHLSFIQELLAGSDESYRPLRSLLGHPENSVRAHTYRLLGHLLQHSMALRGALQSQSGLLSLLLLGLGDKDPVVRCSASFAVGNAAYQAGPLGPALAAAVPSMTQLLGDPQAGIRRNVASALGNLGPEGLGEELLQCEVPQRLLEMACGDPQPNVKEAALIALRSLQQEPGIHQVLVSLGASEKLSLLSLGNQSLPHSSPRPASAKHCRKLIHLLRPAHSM
SMILES,remaining binding at 1 µM [1] [%],remaining binding at 1 µM (ACVR2B) [%],remaining binding at 1 µM (ARK5) [%],remaining binding at 1 µM (AXL) [%],remaining binding at 1 µM (CAMK1G) [%],remaining binding at 1 µM (CAMK2A) [%],remaining binding at 1 µM (CAMKK2) [%],remaining binding at 1 µM (CDC2L2) [%],remaining binding at 1 µM (CDKL2) [%],remaining binding at 1 µM (CSF1R-autoinhibited) [%],remaining binding at 1 µM (EGFR(L858R)) [%],remaining binding at 1 µM (FER) [%],remaining binding at 1 µM (FLT3 (D835V)) [%],remaining binding at 1 µM (FLT3 (N841I)) [%],remaining binding at 1 µM (FYN) [%],remaining binding at 1 µM (HIPK4) [%],remaining binding at 1 µM (ICK) [%],remaining binding at 1 µM (INSR) [%],remaining binding at 1 µM (MAPKAPK2) [%],remaining binding at 1 µM (MST1) [%],also measured
"CCN1CCN(Cc2cc(NC(=O)c3ccc(C)c(-c4ccc5nc(NC(=O)C6CC6)cn5n4)c3)cc(C(F)(F)F)c2)CC1 [Compound I-2, 3-(2-(cyclopropanecarboxamido)imidazo[1,2-b]pyridazin-6-yl)-N-(3-((4-ethylpiperazin-1-yl)methyl)-5-(trifluoromethyl)phenyl)-4-methylbenzamide]",0.5,96,94,2.1,85,100,28,27,0,25,76,29,5.3,0,4.1,32,50,0.85,72,30,remaining binding at 1 µM (NEK1): 95%; remaining binding at 1 µM (PAK6): 95%; remaining binding at 1 µM (PDPK1): 89%; remaining binding at 1 µM (PIK4CB): 97%; remaining binding at 1 µM (PIP5K1A): 100%; remaining binding at 1 µM (PKN2): 77%; remaining binding at 1 µM (RET (V804L)): 0.15%; remaining binding at 1 µM [2]: 73%; remaining binding at 1 µM [3]: 98%; remaining binding at 1 µM (SIK): 100%; remaining binding at 1 µM (SRC): 0%; remaining binding at 1 µM (STK36): 66%; remaining binding at 1 µM (TNNI3K): 56%; remaining binding at 1 µM [4]: 54%; remaining binding at 1 µM (TYK2(JH2domainpseudokia)): 80%; remaining binding at 1 µM (YSK1): 61%; remaining binding at 1 µM (p38-alpha): 8.4%; remaining binding at 1 µM (p38-delta): 41%
"CCN1CCN(Cc2cc(NC(=O)c3ccc(C)c(-c4ccc5nc(NC(=O)C6CC6)cn5c4)c3)cc(C(F)(F)F)c2)CC1 [Compound I-6, 3-(2-(cyclopropanecarboxamido)imidazo[1,2-a]pyridin-6-yl)-N-(3-((4-ethylpiperazin-1-yl)methyl)-5-(trifluoromethyl)phenyl)-4-methylbenzamide]",0.65,100,100,3.9,100,100,41,34,0.8,49,71,6,7.7,0,3.7,55,68,3.2,96,60,remaining binding at 1 µM (NEK1): 97%; remaining binding at 1 µM (PAK6): 97%; remaining binding at 1 µM (PDPK1): 83%; remaining binding at 1 µM (PIK4CB): 96%; remaining binding at 1 µM (PIP5K1A): 100%; remaining binding at 1 µM (PKN2): 100%; remaining binding at 1 µM (RET (V804L)): 0%; remaining binding at 1 µM [2]: 66%; remaining binding at 1 µM [3]: 89%; remaining binding at 1 µM (SIK): 100%; remaining binding at 1 µM (SRC): 0%; remaining binding at 1 µM (STK36): 100%; remaining binding at 1 µM (TNNI3K): 36%; remaining binding at 1 µM [4]: 41%; remaining binding at 1 µM (TYK2(JH2domainpseudokia)): 95%; remaining binding at 1 µM (YSK1): 100%; remaining binding at 1 µM (p38-alpha): 26%; remaining binding at 1 µM (p38-delta): 32%
